Test results from ChEMBL document CHEMBL4118237 (Bioorg Med Chem, 2018).
Activity calls are given as the source filed them. The calls are words filed in the database; no cut-off is given here. *1 amine or outer side, *2 acyl side, *3 side chain or, on linkers, in order; H or OH if unused. Where a SMILES comes first, the peptide text is derived from it. Bridges are numbered along the chain shown (N, C = ends). Roman numbers before positions name the chains, in order. [ ]: non-standard residue; d: D form. Piperazine(1,4-diyl) = C1CN([*:2])CCN1[*:1]; Dmt = Cc1cc(O)cc(C)c1C[C@H](N)C(=O)O; Cystamine = C(CSSCCN[*:2])N[*:1]

Tests used:
[1] = target: T1, Kappa-type opioid receptor (Homo sapiens, UniProt P41145); experiment: Antagonist activity at KOR (unknown origin) expressed in HEK cells assessed as cAMP accumulation by split luciferase assay; assay type: functional, cell-based
T1 sequence (P41145 whole entry): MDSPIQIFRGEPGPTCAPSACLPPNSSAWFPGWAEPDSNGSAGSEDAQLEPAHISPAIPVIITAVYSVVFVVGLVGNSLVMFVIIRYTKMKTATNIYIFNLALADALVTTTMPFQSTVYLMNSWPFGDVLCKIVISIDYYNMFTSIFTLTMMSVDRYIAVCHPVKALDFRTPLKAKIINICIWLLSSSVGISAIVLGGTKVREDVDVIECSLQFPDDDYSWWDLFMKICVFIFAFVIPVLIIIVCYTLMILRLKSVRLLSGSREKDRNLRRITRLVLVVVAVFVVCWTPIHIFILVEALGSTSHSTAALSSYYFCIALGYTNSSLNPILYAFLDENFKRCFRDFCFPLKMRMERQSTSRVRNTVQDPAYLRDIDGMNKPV

[2] = target: T2, Delta-type opioid receptor (Homo sapiens, UniProt P41143); experiment: Antagonist activity at DOR (unknown origin) expressed in HEK cells assessed as cAMP accumulation by split luciferase assay; assay type: functional, cell-based
T2 sequence (P41143 whole entry): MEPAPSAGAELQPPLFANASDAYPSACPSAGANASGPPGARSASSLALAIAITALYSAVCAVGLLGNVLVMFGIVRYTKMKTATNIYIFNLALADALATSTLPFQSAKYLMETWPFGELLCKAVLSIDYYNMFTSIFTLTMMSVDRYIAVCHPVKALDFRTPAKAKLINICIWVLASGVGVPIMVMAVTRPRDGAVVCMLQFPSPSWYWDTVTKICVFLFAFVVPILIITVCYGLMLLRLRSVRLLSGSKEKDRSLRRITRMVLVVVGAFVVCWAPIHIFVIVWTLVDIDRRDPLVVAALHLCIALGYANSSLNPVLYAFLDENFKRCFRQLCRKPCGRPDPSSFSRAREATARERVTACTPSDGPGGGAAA

[3] = target: T3, Mu-type opioid receptor (Homo sapiens, UniProt P35372); experiment: Antagonist activity at MOR (unknown origin) expressed in HEK cells assessed as cAMP accumulation by split luciferase assay; assay type: functional, cell-based
T3 sequence (P35372 whole entry): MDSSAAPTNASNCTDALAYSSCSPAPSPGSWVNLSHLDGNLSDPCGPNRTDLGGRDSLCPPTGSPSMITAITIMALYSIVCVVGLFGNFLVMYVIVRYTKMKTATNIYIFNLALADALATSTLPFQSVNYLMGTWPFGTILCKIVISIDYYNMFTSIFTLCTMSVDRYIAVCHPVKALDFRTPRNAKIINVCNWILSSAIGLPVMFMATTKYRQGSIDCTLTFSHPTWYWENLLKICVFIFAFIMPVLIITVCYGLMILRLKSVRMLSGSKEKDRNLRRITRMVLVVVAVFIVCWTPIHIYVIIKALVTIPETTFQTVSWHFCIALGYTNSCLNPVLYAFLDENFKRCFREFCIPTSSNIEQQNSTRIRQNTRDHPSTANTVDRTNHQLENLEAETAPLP

[4] = target: T3, Mu-type opioid receptor; experiment: Agonist activity at MOR (unknown origin) expressed in HEK cells assessed as reduction in cAMP accumulation by split luciferase assay relative to DAMGO; assay type: functional, cell-based
[5] = target: T2, Delta-type opioid receptor; experiment: Agonist activity at DOR (unknown origin) expressed in HEK cells assessed as reduction in cAMP accumulation by split luciferase assay relative to DADLE; assay type: functional, cell-based
[6] = target: T1, Kappa-type opioid receptor; experiment: Agonist activity at KOR (unknown origin) expressed in HEK cells assessed as reduction in cAMP accumulation by split luciferase assay relative to salvinorin A; assay type: functional, cell-based
[7] = target: T3, Mu-type opioid receptor; experiment: Displacement of [3H]DAMGO from MOR (unknown origin) expressed in HEK cells; assay type: cell-based
[8] = target: T2, Delta-type opioid receptor; experiment: Displacement of [3H]DADLE from DOR (unknown origin) expressed in HEK cells; assay type: cell-based
[9] = target: T1, Kappa-type opioid receptor; experiment: Displacement of [3H]U69593 from KOR (unknown origin) expressed in HEK cells; assay type: cell-based
[10] = target: T3, Mu-type opioid receptor; experiment: Agonist activity at MOR (unknown origin) expressed in HEK cells assessed as reduction in cAMP accumulation by split luciferase assay; assay type: functional, cell-based
[11] = target: T2, Delta-type opioid receptor; experiment: Agonist activity at DOR (unknown origin) expressed in HEK cells assessed as reduction in cAMP accumulation by split luciferase assay; assay type: functional, cell-based
[12] = target: T1, Kappa-type opioid receptor; experiment: Agonist activity at KOR (unknown origin) expressed in HEK cells assessed as reduction in cAMP accumulation by split luciferase assay; assay type: functional, cell-based
[13] = target: T1, Kappa-type opioid receptor; experiment: Binding affinity to KOR (unknown origin)

CC1(C)SSC(C)(C)[C@H](NC(=O)[C@@H](N)Cc2ccc(O)cc2)C(=O)NCC(=O)N[C@@H](Cc2ccccc2)C(=O)N2CCN(CC2)C(=O)[C@H](Cc2ccccc2)NC(=O)CNC(=O)[C@H]1NC(=O)[C@@H](N)Cc1ccc(O)cc1 (HELM PEPTIDE1{Y.[Pen].G.F}|PEPTIDE2{Y.[Pen].G.F}|CHEM1{[C1CN([*:2])CCN1[*:1]]}$PEPTIDE1,PEPTIDE2,2:R3-2:R3|PEPTIDE1,CHEM1,4:R2-1:R1|PEPTIDE2,CHEM1,4:R2-1:R2$$$V2.0)
Activity [1]: inactive | Activity [2]: inactive | Activity [3]: inactive | Emax [4]: 86% | Emax [5]: 206% | Emax [6]: 62%

Cc1cc(O)cc(C)c1C[C@H](N)C(=O)N[C@@H]1CSSC[C@@H](NC(=O)[C@@H](N)Cc2c(C)cc(O)cc2C)C(=O)NCC(=O)N[C@@H](Cc2ccccc2)C(=O)N2CCN(CC2)C(=O)[C@H](Cc2ccccc2)NC(=O)CNC1=O (I: H-[Dmt][dC]GF / II: H-[Dmt][dC]GF; disulfide I:2-II:2; linker I:C-II:C via Piperazine(1,4-diyl))
Activity [1]: inactive | Activity [2]: inactive | Activity [3]: inactive | Ki [7]: 2.5 nM | Ki [8]: 2 nM | Ki [9]: 4.9 nM | EC50 [10]: 112 nM | EC50 ([11]; read-out: EC50): 117 nM | EC50 ([11]; read-out: pEC50 (converted)): 11.7 nM | EC50 [12]: 63.1 nM | Emax [4]: 58% | Emax [5]: 90% | Emax [6]: 82%

Cc1cc(O)cc(C)c1C[C@H](N)C(=O)N[C@@H]1CSSC[C@@H](NC(=O)[C@@H](N)Cc2c(C)cc(O)cc2C)C(=O)NCC(=O)N[C@@H](Cc2ccccc2)C(=O)NCCSSCCNC(=O)[C@H](Cc2ccccc2)NC(=O)CNC1=O (I: H-[Dmt][dC]GF / II: H-[Dmt][dC]GF; disulfide I:2-II:2; linker I:C-II:C via Cystamine)
Activity [1]: inactive | Activity [2]: inactive | Activity [3]: inactive | Ki [7]: 0.27 nM | Ki [8]: 0.46 nM | Ki [9]: 0.87 nM | EC50 [10]: 3.47 nM | EC50 ([11]; read-out: EC50): 1.45 nM | EC50 [12]: 13.5 nM | Emax [4]: 119% | Emax [5]: 106% | Emax [6]: 98%

N[C@@H](Cc1ccc(O)cc1)C(=O)N[C@@H]1CSSC[C@@H](NC(=O)[C@@H](N)Cc2ccc(O)cc2)C(=O)NCC(=O)N[C@@H](Cc2ccccc2)C(=O)N2CCN(CC2)C(=O)[C@H](Cc2ccccc2)NC(=O)CNC1=O (HELM PEPTIDE1{Y.[dC].G.F}|PEPTIDE2{Y.[dC].G.F}|CHEM1{[C1CN([*:2])CCN1[*:1]]}$PEPTIDE1,PEPTIDE2,2:R3-2:R3|PEPTIDE1,CHEM1,4:R2-1:R1|PEPTIDE2,CHEM1,4:R2-1:R2$$$V2.0)
Activity [1]: inactive | Activity [2]: inactive | Activity [3]: inactive | Ki [7]: 8.9 nM | Ki [8]: 27 nM | Ki [9]: 19 nM | EC50 [10]: 513 nM | EC50 ([11]; read-out: EC50): 245 nM | EC50 [12]: 339 nM | Emax [4]: 54% | Emax [5]: 77% | Emax [6]: 92%

N[C@@H](Cc1ccc(O)cc1)C(=O)N[C@@H]1CSSC[C@@H](NC(=O)[C@@H](N)Cc2ccc(O)cc2)C(=O)NCC(=O)N[C@@H](Cc2ccccc2)C(=O)NCCSSCCNC(=O)[C@H](Cc2ccccc2)NC(=O)CNC1=O (HELM PEPTIDE1{Y.[dC].G.F}|PEPTIDE2{Y.[dC].G.F}|CHEM1{[C(CSSCCN[*:2])N[*:1]]}$PEPTIDE1,PEPTIDE2,2:R3-2:R3|PEPTIDE1,CHEM1,4:R2-1:R1|PEPTIDE2,CHEM1,4:R2-1:R2$$$V2.0)
Activity [1]: inactive | Activity [2]: inactive | Activity [3]: inactive | Ki [7]: 2.4 nM | Ki [8]: 4.1 nM | Ki [9]: 18 nM | EC50 [10]: 87.1 nM | EC50 ([11]; read-out: EC50): 26.9 nM | EC50 [12]: 135 nM | Emax [4]: 90% | Emax [5]: 91% | Emax [6]: 99%

C[C@@H](NC(=O)[C@@H](N)Cc1ccc(O)cc1)C(=O)NCC(=O)N[C@@H](Cc1ccccc1)C(=O)NNC(=O)[C@H](Cc1ccccc1)NC(=O)CNC(=O)[C@@H](C)NC(=O)[C@@H](N)Cc1ccc(O)cc1 [BIPHALIN]
Ki [13]: 270 nM
